In patent US10307357B2, “Prebiotic oral care compositions containing an alkyl glycoside” (COLGATE-PALMOLIVE COMPANY, priority 2013, dated 2019):

Assays:
Format in all cases: cell-based
[1] = system: beneficial oral bacteria and pathogenic oral bacteria; test: Microarray screen, conclusion over the panel; settings: at 24 hrs and at 48 hrs; threshold 2
Protocol: Substrates that were able to increase the metabolic activity of at least one of the above beneficial bacteria while not or only minimally increasing the growth of the pathogenic bacteria are considered to be prebiotic substrates. The extent of metabolic activity of the tested bacteria in the presence of the above-mentioned glycosides after 24 hours and 48 hours was investigated through a high throughput phenotype microarray system (PM) for microbial cells (Biolog Inc.). Each PM can contain up to 95 different biochemical compounds (e.g. glycosides) that may act as substrates for bacteria as well as one negative control, not containing the substrates. Microarray plates were used in which the different wells of each plate were pre-loaded (by the manufacturer, Biolog Inc.) with different glycosides to be tested. […] Color changes were measured spectrophotometrically at 492 nm (Thermo Scientific Multiskan Ascent) at 24 hrs and 48 hrs using the same plate at both time points. […] After 24 hrs and 48 hrs under continuous shaking in a Multiscan microplate reader, the optical density (OD) of the synthetic medium at 24 hours and 48 hours was measured (using the microplate reader) at a wavelength of 492 nm for each combination of bacterium/glycoside, and for each of their respective controls (i.e. which contained the particular bacterium but no glycosides). […]

Streptococcus mutans = test: Twenty-four hour biofilm growth (crystal violet); settings: 24 hours, control = 1
Protocol: (§1) The increase in biofilm formation of the tested bacteria in response to selected glycosides (β-methyl-D-galactoside and α-methyl-D-galactoside) was investigated by setting up biofilm growth assays in a nutritionally rich medium (brain heart infusion broth (BHI), Oxoid), over 24 hours. Late exponential growth phase liquid cultures were prepared by transferring the respective bacterium from blood agar plates to BHI and overnight incubation at 37° C. in an anaerobic atmosphere for A. viscosus, V. parvula, P. gingivalis, P. intermedia, T. forsythia, A. naeslundii, and C. sputigena, and in a 5% CO2 environment for S. salivarius, S. sanguinis, S. mitis, A. actinomycetemcomitans, S. mutans, and S. gordonii. Overnight cultures were transferred to BHI and adjusted to a concentration of 1×10^7 CFU/ml by measuring the optical density at 600 nm (OD600) (BioRad SmartSpec 3000). For each strain, 200 μl of the bacterial suspension was added to a 96-well plate containing 20 μl of the respective glycosides. Final concentrations of the glycosides were set to 5, 10, 20 and 25 μmol/ml. […] Additionally, for each bacterium tested, a background control, to correct for background staining, was added. This background control contained the bacterium tested and 0.03 weight % chlorhexidine, as an antiseptic. Plates were incubated as previously described. After 24 hrs the supernatant was removed from the wells of the plates. The wells were washed twice with 1×100 μL PBS (phosphate buffered saline), fixed for 20 minutes with 96% vol. ethanol (96% vol. solution in water) and the biofilm retained at the bottom of the wells was stained with 1 weight % crystal violet (1 weight % solution in water). The bound dye was dissolved with 5% vol. acetic acid (5% vol. solution in water). Quantification of the stained biofilm was performed by measuring the absorbance at 630 nm using a Multiskan Ascent microplate reader (Thermo Scientific). […] The experiment was carried out on three different days (thus providing 3 biological replicas) and each day the experiment was carried out in quadruple (thus providing 4 technical replicas) for each combination of bacterium with glycoside and for each control. For each day and for each combination, the average (mean) of the values obtained (as detailed above) for the four technical replicas was calculated to provide a single value for each combination on each day. The values shown in Tables 7 to 8, below, are the average (mean) of the three single values obtained for each combination of bacterium with glycoside.

Streptococcus gordonii = test: Twenty-four hour biofilm growth (crystal violet); settings: 24 hours, control = 1
Protocol: as §1

[2] = system: Aggregatibacter actinomycetemcomitans; test: Twenty-four hour biofilm growth (crystal violet); settings: 24 hours, control = 1
Protocol: as §1

Prevotella intermedia = test: Twenty-four hour biofilm growth (crystal violet); settings: 24 hours, control = 1
Protocol: as §1

Streptococcus sanguinis = test: Twenty-four hour biofilm growth (crystal violet); settings: 24 hours, control = 1
Protocol: as §1

Veillonella parvula = test: Twenty-four hour biofilm growth (crystal violet); settings: 24 hours, control = 1
Protocol: as §1

Streptococcus salivarius = test: Twenty-four hour biofilm growth (crystal violet); settings: 24 hours, control = 1
Protocol: as §1

SMILES	prebiotic effect (metabolic activity), in words [1]	biofilm OD 630 nm divided by control (biofilm growth) (Streptococcus mutans; 5 μmol/ml)	biofilm OD 630 nm divided by control (biofilm growth) (Streptococcus mutans; 10 μmol/ml)	biofilm OD 630 nm divided by control (biofilm growth) (Streptococcus mutans; 20 μmol/ml)	biofilm OD 630 nm divided by control (biofilm growth) (Streptococcus mutans; 25 μmol/ml)	biofilm OD 630 nm divided by control (biofilm growth) (Streptococcus gordonii; 5 μmol/ml)	biofilm OD 630 nm divided by control (biofilm growth) (Streptococcus gordonii; 10 μmol/ml)	biofilm OD 630 nm divided by control (biofilm growth) (Streptococcus gordonii; 20 μmol/ml)	biofilm OD 630 nm divided by control (biofilm growth) (Streptococcus gordonii; 25 μmol/ml)	biofilm OD 630 nm divided by control (biofilm growth) ([2]; 5 μmol/ml)	biofilm OD 630 nm divided by control (biofilm growth) ([2]; 10 μmol/ml)	biofilm OD 630 nm divided by control (biofilm growth) ([2]; 20 μmol/ml)	biofilm OD 630 nm divided by control (biofilm growth) ([2]; 25 μmol/ml)	biofilm OD 630 nm divided by control (biofilm growth) (Prevotella intermedia; 5 μmol/ml)	biofilm OD 630 nm divided by control (biofilm growth) (Prevotella intermedia; 10 μmol/ml)	biofilm OD 630 nm divided by control (biofilm growth) (Prevotella intermedia; 20 μmol/ml)	biofilm OD 630 nm divided by control (biofilm growth) (Prevotella intermedia; 25 μmol/ml)	biofilm OD 630 nm divided by control (biofilm growth) (Streptococcus sanguinis; 5 μmol/ml)	biofilm OD 630 nm divided by control (biofilm growth) (Streptococcus sanguinis; 10 μmol/ml)	biofilm OD 630 nm divided by control (biofilm growth) (Streptococcus sanguinis; 20 μmol/ml)	also measured
CO[C@H]1O[C@H](CO)[C@H](O)[C@H](O)[C@H]1O [α-methyl-D-galactoside]	exhibited prebiotic effects	1.2046	1.3284	1.5452	1.7240	0.6940	0.6458	0.6465	0.6859	0.9911	0.9943	1.1846	1.1720	1.1518	1.1589	1.0758	0.9774	2.6029	2.4812	2.1593	biofilm OD 630 nm divided by control (biofilm growth) (Streptococcus sanguinis; 25 μmol/ml): 2.4656; biofilm OD 630 nm divided by control (biofilm growth) (Veillonella parvula; 5 μmol/ml): 1.0323; biofilm OD 630 nm divided by control (biofilm growth) (Veillonella parvula; 10 μmol/ml): 1.0615; biofilm OD 630 nm divided by control (biofilm growth) (Veillonella parvula; 20 μmol/ml): 1.0577; biofilm OD 630 nm divided by control (biofilm growth) (Veillonella parvula; 25 μmol/ml): 1.1040; biofilm OD 630 nm divided by control (biofilm growth) (Streptococcus salivarius; 5 μmol/ml): 0.9165; biofilm OD 630 nm divided by control (biofilm growth) (Streptococcus salivarius; 10 μmol/ml): 0.9115; biofilm OD 630 nm divided by control (biofilm growth) (Streptococcus salivarius; 20 μmol/ml): 1.1202; biofilm OD 630 nm divided by control (biofilm growth) (Streptococcus salivarius; 25 μmol/ml): 0.9258
CO[C@@H]1O[C@H](CO)[C@H](O)[C@H](O)[C@H]1O [β-methyl-D-galactoside]	exhibited prebiotic effects	1.3512	1.0007	1.1097	1.2791	0.7601	0.6695	0.6763	0.6429	1.1108	1.0188	1.0927	1.0212	1.1201	1.0925	1.1229	1.1007	1.8586	2.3853	2.3700	biofilm OD 630 nm divided by control (biofilm growth) (Streptococcus sanguinis; 25 μmol/ml): 2.4211; biofilm OD 630 nm divided by control (biofilm growth) (Veillonella parvula; 5 μmol/ml): 1.0106; biofilm OD 630 nm divided by control (biofilm growth) (Veillonella parvula; 10 μmol/ml): 1.0266; biofilm OD 630 nm divided by control (biofilm growth) (Veillonella parvula; 20 μmol/ml): 1.0191; biofilm OD 630 nm divided by control (biofilm growth) (Veillonella parvula; 25 μmol/ml): 1.0384; biofilm OD 630 nm divided by control (biofilm growth) (Streptococcus salivarius; 5 μmol/ml): 3.1530; biofilm OD 630 nm divided by control (biofilm growth) (Streptococcus salivarius; 10 μmol/ml): 5.6484; biofilm OD 630 nm divided by control (biofilm growth) (Streptococcus salivarius; 20 μmol/ml): 18.9267; biofilm OD 630 nm divided by control (biofilm growth) (Streptococcus salivarius; 25 μmol/ml): 20.1333
